Data set [1] addresses T1, E. coli DNA gyrase (Escherichia coli, UniProt P0AES4+P0AES6). The experiment in a line: SDFQ HTS assay of E. coli DNA gyrase (1536-well). Format: biochemical. Conditions: read-out: inhibition activities against E. coli DNA gyrase. How it is done:
SDFQ HITS primary assay using pAB1_FL905 was performed in 2 μL of (1×DNA gyrase buffer: 20 mM Tris-Acetate pH 7.9, 50 mM KAc, 10 mM MgCl2, 2 mM DTT, 1 mM ATP, 0.1 mg/ml. BSA). […] 3) Spun plate at 800 rpm for 30 seconds. […] SDFQ HTS secondary assay using pAB1_FL924 was performed in 2 μL of (1×DNA gyrase buffer: 20 mM Tris-Acetate pHI 7.9, 50 mM KAc, 10 mM MgCl2, 2 mM DTT, 1 mM ATP, 0.1 mg/mL BSA). […] 3) Spun plate at 800 rpm for 30 seconds.

Data set [2] addresses T1, E. coli DNA gyrase. The experiment in a line: E. coli DNA gyrase inhibition (agarose gel-based and/or SDFQ-based, not specified per value). Format: biochemical. Conditions: Table 2 values; read-out: IC50 ( ≤15 μM) IC50.
Data set [3] deals with T1, E. coli DNA gyrase. The experiment in a line: DNA gyrase mediated DNA cleavage assay. Format: biochemical. The conditions noted are these: plasmid pBR322. As for the experimental part:
250 ng of supercoiled pBR322 plasmid were incubated with 50 nM of E. coli DNA gyrase in reactions containing 35 mM Tris-HCl, 24 mM KCl, 4 mM MgCl2, 2 mM DTT, 0.1 mg/mL BSA, 6.5% glycerol, and 1.75 mM ATP, in presence of 200 μM of compounds, at 37° C. for 15 min. Then, 0.2% (w/v) of SDS and 0.1 mg/mL proteinase K were added, and samples were incubated at 37° C. for 1 h. […] Samples were examined by electrophoresis in 1% w/v agarose gel containing 0.5 μg/mL ethidium bromide and photographed under UV light.

Data set [4] addresses human DNA topoisomerase 2α (Homo sapiens, UniProt P11388). The experiment in a line: Human DNA topoisomerase 2α-mediated DNA cleavage assays. The conditions noted are these: plasmid pBR322. Format: biochemical.
Data set [5] has as its system E. coli (ATCC 25922). The experiment in a line: Minimum inhibitory concentration, E. coli. Format: cell-based. Conditions: wildtype strain ATCC 25922. How it is done:
(§1) Antibacterial minimum inhibitory concentrations (MICs) were obtained from three independent experiments using broth microdilution methods in 96-well plates according to Clinical and Laboratory Standards Institute guidelines. Cells were culture from singles colonies in MHIIB medium for 24 h at 37° C. in agitation (200 RPM). The cultures were then diluted using the same media to reach an OD600 of 0.1. Then, 50 μL of the diluted cultures were added to the plates holding 50 μL of serially diluted compounds in MHIIB. The plates were incubated at 37° C. for 20 h. The starting inoculum was fixated to 10^5 colony-forming units per ml.

The subject of data set [6] is E. coli imp. The experiment in a line: microbe, parasite or virus in culture. Format: cell-based. Conditions: Escherichia coli, read-out: Minimum Inhibitory Concentration E. coli imp. How it is done: as §1
The test system of data set [7] is S. aureus (ATCC 14775). The experiment in a line: Minimum inhibitory concentration, S. aureus. Format: cell-based. As for the experimental part:
as §1

Data set [8] concerns MRSA (ATCC BAA44). Kind of data set: microbe, parasite or virus in culture. Format: cell-based, S. aureus. How it is done:
as §1

In brackets after ≈: the same amount, converted by molar mass. Entries after “also recorded” stand apart in the source; their conditions may differ.

T1 sequence (P0AES4 whole entry, one chain of several): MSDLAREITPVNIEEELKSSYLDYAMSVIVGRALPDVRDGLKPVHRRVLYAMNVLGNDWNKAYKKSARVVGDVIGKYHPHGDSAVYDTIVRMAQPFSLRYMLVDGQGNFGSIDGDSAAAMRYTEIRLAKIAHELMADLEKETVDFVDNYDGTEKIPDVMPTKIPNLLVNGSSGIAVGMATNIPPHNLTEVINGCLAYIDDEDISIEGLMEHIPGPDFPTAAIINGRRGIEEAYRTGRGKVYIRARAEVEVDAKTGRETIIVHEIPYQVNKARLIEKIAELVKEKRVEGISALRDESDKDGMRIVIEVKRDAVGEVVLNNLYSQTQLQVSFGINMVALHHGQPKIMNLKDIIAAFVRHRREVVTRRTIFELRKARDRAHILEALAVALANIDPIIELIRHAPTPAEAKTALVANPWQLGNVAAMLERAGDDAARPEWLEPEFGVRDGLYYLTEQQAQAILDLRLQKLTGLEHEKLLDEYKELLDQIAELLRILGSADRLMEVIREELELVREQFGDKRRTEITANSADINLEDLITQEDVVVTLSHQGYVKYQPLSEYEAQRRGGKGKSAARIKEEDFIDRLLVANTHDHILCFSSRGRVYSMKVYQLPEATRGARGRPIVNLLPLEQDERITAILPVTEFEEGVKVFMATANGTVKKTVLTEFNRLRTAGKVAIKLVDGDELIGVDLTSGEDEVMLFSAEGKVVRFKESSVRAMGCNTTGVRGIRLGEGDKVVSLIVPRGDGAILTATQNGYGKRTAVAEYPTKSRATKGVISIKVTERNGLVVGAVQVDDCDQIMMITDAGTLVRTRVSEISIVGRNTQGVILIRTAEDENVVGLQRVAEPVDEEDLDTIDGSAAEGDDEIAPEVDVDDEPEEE
Sequence of human DNA topoisomerase 2α (P11388 whole entry): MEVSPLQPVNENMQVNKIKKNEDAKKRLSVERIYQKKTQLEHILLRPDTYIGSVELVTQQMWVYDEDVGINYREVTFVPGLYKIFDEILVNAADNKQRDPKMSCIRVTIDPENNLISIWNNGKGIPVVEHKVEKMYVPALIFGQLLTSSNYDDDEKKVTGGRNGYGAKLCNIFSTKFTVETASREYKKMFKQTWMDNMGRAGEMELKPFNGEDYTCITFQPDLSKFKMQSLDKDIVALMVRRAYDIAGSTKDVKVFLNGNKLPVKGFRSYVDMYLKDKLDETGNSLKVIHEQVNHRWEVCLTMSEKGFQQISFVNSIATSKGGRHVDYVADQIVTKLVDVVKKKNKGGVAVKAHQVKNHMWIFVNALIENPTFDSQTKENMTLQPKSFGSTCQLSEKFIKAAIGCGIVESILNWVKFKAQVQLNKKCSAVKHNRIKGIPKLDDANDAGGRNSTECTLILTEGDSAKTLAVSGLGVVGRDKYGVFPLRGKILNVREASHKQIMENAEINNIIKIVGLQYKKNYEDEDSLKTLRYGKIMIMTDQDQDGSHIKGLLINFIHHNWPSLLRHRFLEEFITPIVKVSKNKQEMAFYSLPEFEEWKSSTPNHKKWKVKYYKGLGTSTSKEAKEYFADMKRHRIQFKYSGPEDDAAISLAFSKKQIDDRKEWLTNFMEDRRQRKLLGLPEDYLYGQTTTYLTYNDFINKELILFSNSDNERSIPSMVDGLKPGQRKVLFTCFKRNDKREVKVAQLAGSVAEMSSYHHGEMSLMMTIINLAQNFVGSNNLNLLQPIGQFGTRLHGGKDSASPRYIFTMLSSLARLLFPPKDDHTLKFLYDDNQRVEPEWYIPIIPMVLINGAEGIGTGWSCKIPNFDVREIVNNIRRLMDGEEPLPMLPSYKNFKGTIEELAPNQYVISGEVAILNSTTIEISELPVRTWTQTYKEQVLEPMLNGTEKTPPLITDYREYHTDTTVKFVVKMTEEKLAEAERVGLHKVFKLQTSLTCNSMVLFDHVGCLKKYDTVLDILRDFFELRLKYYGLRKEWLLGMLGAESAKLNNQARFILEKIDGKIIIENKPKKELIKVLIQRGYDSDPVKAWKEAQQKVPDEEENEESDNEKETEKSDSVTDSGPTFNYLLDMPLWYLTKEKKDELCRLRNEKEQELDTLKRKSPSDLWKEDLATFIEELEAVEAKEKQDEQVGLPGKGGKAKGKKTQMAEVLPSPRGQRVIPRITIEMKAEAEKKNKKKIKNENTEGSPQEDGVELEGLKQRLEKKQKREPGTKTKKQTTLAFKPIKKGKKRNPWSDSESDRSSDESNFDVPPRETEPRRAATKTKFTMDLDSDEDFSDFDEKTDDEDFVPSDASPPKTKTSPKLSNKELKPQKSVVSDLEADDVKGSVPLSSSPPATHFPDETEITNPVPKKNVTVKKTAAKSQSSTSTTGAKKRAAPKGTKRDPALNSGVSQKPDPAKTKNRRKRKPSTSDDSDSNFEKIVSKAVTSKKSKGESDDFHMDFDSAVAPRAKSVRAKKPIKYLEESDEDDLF

In general, inhibition refers to how much of the control response was suppressed. With `N[C@@H]1[C@H]2CN(c3nc4c(cc3F)c(=O)c(C(=O)O)cn4-c3ccc(F)cc3F)C[C@@H]12` [trovafloxacin], in data set [1], the inhibition at 5 µM was greater than 40%.

The term IC50 denotes the concentration that inhibits the measured activity by half. As to `N=C(N)Nc1nc(-c2ccccc2)c2cc(Cl)ccc2n1` [Compound 154, N-(6-chloro-4-phenylquinazolin-2-yl)guanidine], the IC50 in data set [2] came to 3.12 µM. Moreover, the “DNA gyrase-mediated double stranded DNA breaks / DNA nicking” value in data set [3] is “causes the gyrase-mediated DNA double-stranded breaks and single-stranded nicks; also recorded: bacterial DNA gyrase poison”. Also, the “human topoisomerase 2α-mediated DNA nicks and double-stranded breaks” value in data set [4] was “causes the human topoisomerase 2α-mediated DNA nicks and double-stranded breaks”. Moreover, the “antibacterial activities against E. coli” value in data set [5] is “significant antibacterial activities”. Besides, in data set [6], the MIC was 50 to 100 µM (≈ 14.9 to 29.8 µg/mL). Moreover, the “growth inhibition of S. aureus” value in data set [7] was “significant antibacterial activities”. For the same compound, the “growth inhibition of MRSA” value in data set [8] was “significant antibacterial activities”.

As to `Cc1cc(O)c2c(c1)C(=O)c1cc(O)cc(O)c1C2=O` [Compound 242, Emodin], in data set [1], the inhibition at 5 µM was greater than 40%.

Consider `Cc1ccc(C(=O)Nc2ccc(S(=O)(=O)O)c3cc(S(=O)(=O)O)cc(S(=O)(=O)O)c23)cc1NC(=O)c1cccc(NC(=O)Nc2cccc(C(=O)Nc3cc(C(=O)Nc4ccc(S(=O)(=O)O)c5cc(S(=O)(=O)O)cc(S(=O)(=O)O)c45)ccc3C)c2)c1` [suramin], for which, in data set [1], the inhibition at 5 µM was greater than 40%.

The values above are taken from patent publication US12558366B2, “Bacterial DNA gyrase inhibitors and methods of use thereof” (THE FLORIDA INTERNATIONAL UNIVERSITY BOARD OF TRUSTEES, priority 2021, dated 2026).
